Values of other authors in US20130280331A1, “Depot Compositions with multiple drug release rate controls and uses thereof” (Durect Corporation, priority 2001, published 2013).

SMILES: CC(=O)OCC(COC(C)=O)OC(C)=O [triacetin]
- reported solubility in water: 7.17 grams in 100 ml of water
